Data as given in patent publication US12648948B2, “Methods and compositions for treating cancer” (UNITED STATES GOVERNMENT AS REPRESENTED BY THE DEPARTMENT …, priority 2017, dated 2026).

Experiments:
[1] = tested on: U87EGFRwt and U87EGFRvIII cells; assay: AlamarBlue cell viability assay, established GBM cell lines; type: cell-based, human; conditions: established GBM cell lines expressing EGFRwt or EGFRvIII, erlotinib 10 μM
Description: Cell viability assay was conducted using AlamarBlue cell viability assay kit (ThermoFisher) following manufacturer's protocol. Cells were cultured in Corning 96-well black plates with clear bottom (5000 cells/well). Drugs were added to cells for 72 hour following detection using POLARstar Omega Microplate Reader (excitation at 544 nm and emission at 590 nm) (BMG LABTECH, Germany).

Met = assay: Western blot, Met activation in glioma cells; type: cell-based, human; conditions: erlotinib; established cell lines and patient derived neurospheres
Description: Western blot analysis was performed according to standard protocols.

JNK, Axl and ERK = assay: Signal transduction in subcutaneous GBM9 tumors; type: in vivo, mice
Description: (§1) To detect the in vivo levels of TNF, 1×10^6 GBM9 cells were injected into the right flanks of nude mice. When the subcutaneous tumor reached a volume of around 200 mm^3, the mice were treated with erlotinib to monitor the upregulation of TNF protein. The animals were dosed consecutively for 1, 2, 7 or 14 days and then sacrificed. The animals without treatment were considered as control (0-day treatment). Tumor tissues were rinsed in PBS and protein was extracted to analyze the TNF levels using ELISA and also used for western blot. To detect the protein expression in mice brain tumor tissues upon drug treatment, the same procedure was performed in orthotopic models. Additionally, with orthotopic models, mice were divided into four groups (control gavage group, erlotinib group, thalidomide group and erlotinib plus thalidomide, n=3). After 48 hours treatment tumors were harvested and subjected to Western blot and immunostaining.

[2] = tested on: AP-1 transcriptional activity; assay: AP-1 luciferase reporter assay; type: cell-based, human; conditions: erlotinib 1 μM, 24 h; GBM9 and U87EGFRwt cells
Description: Cells were plated in 48 well dishes to 70%-80% confluence followed by with […] or 3xAP1pGL3 reporter plasmid using lipofectamine 2000. A dual-luciferase reporter assay system was used according to manufacturer's instructions (Promega, Madison WI). Firefly luciferase activity was measured in a luminometer and normalized on the basis of Renilla luciferase activity. Experiments were done in triplicate and 3 independent experiments were done.

GBM9 subcutaneous tumors = assay: Subcutaneous GBM9 xenograft tumor growth; type: in vivo, athymic nude mice; conditions: erlotinib 50 mg/kg oral gavage, SP600125 40 mg/kg i.p., thalidomide 150 mg/kg i.p., daily for 10 days
Description: 4 to 6 weeks old female athymic nude mice were purchased from Charles River Laboratories. The mice were housed in plastic cages (4-5 mice per cage) in a room with a 12 hour day-night cycle. 1×10^6 GBM9 cells were subcutaneously injected into the right flank of each nude mouse. […] The mice were randomly divided into control and treatment groups, mice were treated with drugs using the indicated doses. For combination treatment, both drugs were given concurrently for indicated periods. Tumor dimensions were measured by caliper every two days and tumor volumes calculated by the formula: volume=length×width×width/2. Mice were sacrificed when tumors reached over […] or 24 days from the first day of treatment.

[3] = tested on: JNK-Axl-ERK signaling axis; assay: Signal transduction in intracranial GBM9 tumors (Western blot, IHC); type: in vivo, mice; conditions: thalidomide given with erlotinib
Description: as §1
Tumors from nude mice brains were fixed in 10% formalin and embedded in paraffin. Paraffin-embedded sections were cut at five-micrometer thickness. Immunohistochemical staining was performed using the ABC streptavidin-biotin method with the Vectastain ABC kit (Vector Laboratories, Burlingame, CA, USA) according to the manufacturer's protocol. Briefly, after deparaffinization and rehydration, endogenous peroxidase activity was quenched by a 10 min incubation in 3% H2O2. For antigen retrieval, the tissue sections were boiled in 10 mM sodium citrate buffer (pH 6.0) for 20 minutes. Binding of primary anti-pERK (1:100, Cell Signaling Technology, 4376) or anti-pJNK antibody (1:200, Cell signaling Technology, 4668) or anti-pAXL(1:400, R&D, AF2228) was carried out overnight at 4° C. The signal was detected by using the Sigmafast 3,3′-Diaminobenzidine tablets (DAB; Sigma, St. Louis MO). The sections were counterstained lightly with hematoxylin. The IHC staining intensity was scored semiquantitatively as: 0=No positive staining; 1=1-25% tumor cells stained, 2=26%-75% tumor cells stained and 3=>75% tumor cells stained.

ERK = assay: Western blot, ERK activation (pERK) in glioma cells; conditions: GBM9 neurospheres
Description: Western blot analysis was performed according to standard protocols. In all experiments, before the addition of EGF or erlotinib established cells were cultured overnight in serum free DMEM and primary GBM neurospheres were EGF starved overnight. Cells not treated with EGF or erlotinib were also serum or EGF starved.

GBM = conditions: human, in vivo; cited from earlier work
TNF = TNF mRNA (qRT-PCR) and TNF ELISA in glioma cells; type: cell-based, human
Description: Total RNA was isolated by TRIzol Reagent (Ambion). cDNA Reverse Transcription were performed by using High-Capacity cDNA Reverse Transcription Kit (Applied Biosystems). PCR primers were synthesized by IDT (Coralville, IA). Each PCR was carried out in triplicate in a 20 μl volume using SYBR Green Master Mix (Applied Biosystems) for 15 minutes at 95° C. for initial denaturing, followed by 40 cycles of 95° C. for 15 s and 60° C. for 60 s in ViiA 7 Real-Time PCR System (Applied Biosystems). At least two independent experiments were done. Values for each gene were normalized to expression levels of GAPDH mRNA.
2×10^6 cells were incubated in serum-free or EGF free medium containing different concentrations of erlotinib or DMSO. After 48 hours, supernatant and cell lysates were collected. Supernatant medium was concentrated 5-10-fold with Pierce protein concentrator (ThermoFisher). TNF protein concentration in supernatant, cell lysates and tissue extracts was determined by ELISA using a commercial TNF detection kit (ThermoFisher) according to manufacturer's instructions. Additionally, GAS6 protein concentration in supernatant was measured by ELISA kit (LifeSpan BioSciences).

Axl = assay: Western blot, Axl activation (pAxl) in glioma cells; conditions: erlotinib 48 h; patient derived GBM neurospheres and all cell lines examined
Description: Western blot analysis was performed according to standard protocols. In all experiments, before the addition of EGF or erlotinib established cells were cultured overnight in serum free DMEM and primary GBM neurospheres were EGF starved overnight. Cells not treated with EGF or erlotinib were also serum or EGF starved. EGFR (06-847, 1 μg/ml) antibody was from Millipore. pEGFR-1068 (2236), pERK (4376) ERK (4695), p34 (9251), JNK (9252), STAT3(9139), pAkt (0915) and pSTAT3 (9131) antibodies were from Cell Signaling Technology (Danvers, MA) were used a 1/1000 dilution; TNFR1 (sc-8436), ERK2 (sc-154). Akt (sc-1619), and β-Actin (sc-47778) were from Santa Cruz Biotechnology (Dallas, TX) were used at a concentration of 1 μg/ml. GAS6 (AF885), pAxl (AF2228) and Axl (AF154) were from R&D Biosystems (Minneapolis, MN) were used at a concentration of 1 μg/ml c-JUN antibody (ab31419) was from Abcam (Cambridge, MA) and was used at 2 μg per chromatin IP reaction.

[4] = mouse, in vivo

C#Cc1cccc(Nc2ncnc3cc(OCCOC)c(OCCOC)cc23)c1 [erlotinib]
Cell viability, erlotinib alone [1]: completely resistant
Met activation (Met): induces activation of Met in established cell lines, but only in one patient derived neurosphere 987
Time at which JNK-ERK-Axl activation subsides in GBM xenograft tumors (JNK, Axl and ERK; erlotinib): about 2 weeks
Erlotinib induced activation of JNK, Axl and ERK in mouse tumors (JNK, Axl and ERK; subcutaneous GBM9 tumors, erlotinib 50 mg/kg): peaking around 2-7 days and subsiding by 14 days
AP-1 reporter activity [2]: increased activity of the AP-1 reporter
Growth of subcutaneous tumors (GBM9 subcutaneous tumors): no significant effect on the growth of tumors
JNK-Axl-ERK signaling axis in intracranial tumors (Western blot) ([3]; erlotinib 50 mg/kg): Activation of the JNK-Axl-ERK signaling axis can be detected in intracranial tumors
pAxl, pJNK and pERK immunostaining of brain sections ([3]; orthotopic model): higher expression of pAxl, pJNK and pERK compared to vehicle group
ERK activation after addition of erlotinib (ERK; erlotinib 1 μM, early time points): decreased after addition of erlotinib
Feedback reactivation of ERK under continued EGFR inhibition (ERK; erlotinib 1 μM or afatinib 100 nM): reactivation of ERK is seen at 24-48 h
Clinical efficacy in GBM patients (GBM): also not effective
TNF mRNA in GBM622 cells (TNF; GBM622 neurospheres (very low EGFR), erlotinib 100 nM, 24 h): No increase in TNF is detected
TNF mRNA levels (TNF; erlotinib 100 nM (GBM9, GBM39) or 1 μM (U87EGFRwt, U87EGFRvIII)): significant and rapid increase in TNF mRNA levels
TNF protein level (ELISA) (TNF; supernatants of erlotinib treated cells): increase in TNF was confirmed at a protein level
Axl phosphorylation (Axl): phosphorylation of the RTK Axl
Body weight of orthotopic models [4]: Body weight losses
